The values below come from ChEMBL document CHEMBL1201862, “PubChem BioAssay data set” (2004).

Activity calls are given as the source filed them. A value given as a limit tells only on which side of the number the result lay.

Assay [1] is described as follows: cytotoxicity in HEK293 background cells – cell-based, dry powder, set 2, counter-screen for EBV LMP1 inhibitor project, dose response (AID 624374). Type of assay: functional.
Assay [2] is described as follows: inhibitors of EBV LMP1 NF-kappaB signaling – cell-based, luciferase reporter, luminescence, dry powder, set 2, dose response (AID 624376). Type of assay: functional. (In a reporter assay the amount or activity of a reporter protein is the signal.)
Assay [3] addresses Scavenger receptor class B member 1 (Mus musculus, UniProt Q61009). Description: blockers of DiI-HDL lipid transfer via SR-BI – cell-based, ldlA[mSR-BI] CHO, DiI fluorescence, dry powder, set 10, dose response (AID 624029). Type of assay: functional.
Assay [4] in a line: A Cell-Based Confirmatory Screen for Compounds that Inhibit VEEV, TC-83 (8). It is filed as functional.
Assay [5] has as its target Metabotropic glutamate receptor 3 (Rattus norvegicus, UniProt P31422). Briefly: inhibitors of rat mGlu3 Galpha15 signaling – TREx293 cells, calcium flux, mGlu3 NAM project, dose response (AID 651840). Type of assay: functional. (Calcium assays in cells follow changes in intracellular calcium, usually with a dye or a luminescent sensor.)
Assay [6] can be described thus: liver cell line viability loss – HepG2, luminescence plate reader, powder samples, set 2, cytotoxicity control, dose response (AID 651860). It is filed as functional, cell-based.
The nature of assay [7]: kidney cell line viability loss – HEK293T, luminescence plate reader, powder samples, set 4, cytotoxicity control, dose response (AID 651863). It is filed as functional, cell-based. Conditions: HEK293.
The subject of the next assay is INS1. Description: INS-1E survival protection against cytokine death – cell-based, luminescence, retest, dose response (AID 449756).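 Note: cell death triggered by IL-1 beta plus TNF-alpha plus IFN-gamma mixture; protective hits raise ATP signal compared with cytokine alone wells.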 Type of assay: functional. The conditions noted are these: Rattus norvegicus.
A further assay has as its target Beta-galactosidase (Escherichia coli, UniProt Q8VNN2). Description: Dose response counterscreen for EBI2 assay utilizing the enzyme, b-galactosidase. It is filed as functional.
Assay [8] is described as follows: potency of ADAM10 substrate cleavage blockers – biochemical, QFRET, dose response (AID 743254).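 Note: ADAM10 enzyme with the DM2 quenched FRET peptide as substrate; EDANS fluorescence gain as the protease cuts the substrate; inhibitor potency against ADAM10 proteolytic activity.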
For assay [9], the target named is Disintegrin and metalloproteinase domain-containing protein 17 (Homo sapiens, UniProt P78536). Briefly: inhibition of ADAM17 substrate cleavage – biochemical, quenched FRET substrate, counter-screen for ADAM10 exosite inhibitor project, dose response (AID 743253).
Disintegrin and metalloproteinase domain-containing protein 17, sequence (P78536 whole entry, the tested form may be a part): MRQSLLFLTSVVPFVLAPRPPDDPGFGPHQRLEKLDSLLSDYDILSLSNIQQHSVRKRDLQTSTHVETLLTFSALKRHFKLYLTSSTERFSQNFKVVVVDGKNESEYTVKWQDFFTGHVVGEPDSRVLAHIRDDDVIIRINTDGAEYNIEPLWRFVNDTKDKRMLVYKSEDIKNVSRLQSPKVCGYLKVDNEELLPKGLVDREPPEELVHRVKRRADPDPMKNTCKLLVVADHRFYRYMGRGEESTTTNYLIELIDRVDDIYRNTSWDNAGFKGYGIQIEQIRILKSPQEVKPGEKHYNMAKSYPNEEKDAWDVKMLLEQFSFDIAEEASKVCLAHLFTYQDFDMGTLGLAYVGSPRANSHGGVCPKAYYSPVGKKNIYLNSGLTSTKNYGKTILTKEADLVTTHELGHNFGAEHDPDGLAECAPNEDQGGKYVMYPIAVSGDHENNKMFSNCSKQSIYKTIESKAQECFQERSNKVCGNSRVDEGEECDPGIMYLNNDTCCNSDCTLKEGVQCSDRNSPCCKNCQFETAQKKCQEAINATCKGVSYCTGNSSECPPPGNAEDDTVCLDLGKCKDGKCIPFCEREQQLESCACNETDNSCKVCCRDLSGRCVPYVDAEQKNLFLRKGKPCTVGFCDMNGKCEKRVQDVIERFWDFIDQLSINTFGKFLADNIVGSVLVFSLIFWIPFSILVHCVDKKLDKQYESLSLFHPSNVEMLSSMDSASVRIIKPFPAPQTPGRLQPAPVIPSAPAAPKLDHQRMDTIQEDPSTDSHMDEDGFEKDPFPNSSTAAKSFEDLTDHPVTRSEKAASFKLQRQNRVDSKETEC
A short description of assay [10]: viability loss in HeLa cells – cytotoxicity control for MgcRacGAP inhibitor project, dose response (AID 624300). Type of assay: functional.
The target of assay [11] is T1, Rac GTPase-activating protein 1 (Homo sapiens, UniProt Q9H0H5).
T1 sequence (Q9H0H5 whole entry): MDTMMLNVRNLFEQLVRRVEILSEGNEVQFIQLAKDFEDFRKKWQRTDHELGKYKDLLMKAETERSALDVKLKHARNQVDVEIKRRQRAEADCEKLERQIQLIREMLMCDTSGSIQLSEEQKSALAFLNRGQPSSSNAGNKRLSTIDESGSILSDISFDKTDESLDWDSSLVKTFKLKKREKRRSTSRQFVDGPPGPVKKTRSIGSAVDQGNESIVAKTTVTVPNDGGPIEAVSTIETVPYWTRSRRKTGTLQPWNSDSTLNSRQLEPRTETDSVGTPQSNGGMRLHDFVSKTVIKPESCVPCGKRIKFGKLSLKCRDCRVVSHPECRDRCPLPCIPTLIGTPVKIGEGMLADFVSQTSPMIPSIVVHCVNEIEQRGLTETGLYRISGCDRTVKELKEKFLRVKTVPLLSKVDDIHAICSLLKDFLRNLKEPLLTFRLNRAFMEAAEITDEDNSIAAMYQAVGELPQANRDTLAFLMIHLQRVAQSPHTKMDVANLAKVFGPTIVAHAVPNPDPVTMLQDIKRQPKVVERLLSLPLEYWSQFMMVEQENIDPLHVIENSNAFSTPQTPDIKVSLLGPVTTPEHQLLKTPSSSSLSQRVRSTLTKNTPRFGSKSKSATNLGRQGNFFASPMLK
Description: blockers of MgcRacGAP-driven Rac1 GTP hydrolysis – biochemical, ADP Hunter fluorescence, primary and confirmatory, confirmation (AID 624330). Type of assay: functional.

Assay [12] addresses T2, Carboxy-terminal domain RNA polymerase II polypeptide A small phosphatase 1 (Homo sapiens, UniProt Q9GZU7).
T2 sequence (Q9GZU7 whole entry): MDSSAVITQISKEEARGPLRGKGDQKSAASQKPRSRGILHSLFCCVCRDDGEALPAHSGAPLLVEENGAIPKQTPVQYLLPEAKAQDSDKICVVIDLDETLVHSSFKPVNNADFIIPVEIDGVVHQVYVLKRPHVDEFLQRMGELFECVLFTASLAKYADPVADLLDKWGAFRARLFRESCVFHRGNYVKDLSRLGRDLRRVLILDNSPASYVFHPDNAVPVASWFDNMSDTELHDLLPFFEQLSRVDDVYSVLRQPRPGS
Description: CTDSP1 inhibitors, concentration-response, biochemical, absorbance readout, ultra-high-throughput screen actives (AID 540297). Type of assay: functional.

For assay [13], the target named is T3, Low molecular weight phosphotyrosine protein phosphatase (Homo sapiens, UniProt P24666).
T3 sequence (P24666 whole entry): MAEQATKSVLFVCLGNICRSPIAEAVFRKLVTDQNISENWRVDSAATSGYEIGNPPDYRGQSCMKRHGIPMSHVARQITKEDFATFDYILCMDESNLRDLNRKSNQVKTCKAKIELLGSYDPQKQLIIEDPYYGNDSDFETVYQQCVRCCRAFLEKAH
Type of assay: functional. The conditions noted are these: read-out: IC50_Mean.

For assay [14], the target named is T3, Low molecular weight phosphotyrosine protein phosphatase. Type of assay: functional. The conditions noted are these: read-out: IC50_Mean. This is another data set of the same source.

Scavenger receptor class B member 1, sequence (Q61009 whole entry): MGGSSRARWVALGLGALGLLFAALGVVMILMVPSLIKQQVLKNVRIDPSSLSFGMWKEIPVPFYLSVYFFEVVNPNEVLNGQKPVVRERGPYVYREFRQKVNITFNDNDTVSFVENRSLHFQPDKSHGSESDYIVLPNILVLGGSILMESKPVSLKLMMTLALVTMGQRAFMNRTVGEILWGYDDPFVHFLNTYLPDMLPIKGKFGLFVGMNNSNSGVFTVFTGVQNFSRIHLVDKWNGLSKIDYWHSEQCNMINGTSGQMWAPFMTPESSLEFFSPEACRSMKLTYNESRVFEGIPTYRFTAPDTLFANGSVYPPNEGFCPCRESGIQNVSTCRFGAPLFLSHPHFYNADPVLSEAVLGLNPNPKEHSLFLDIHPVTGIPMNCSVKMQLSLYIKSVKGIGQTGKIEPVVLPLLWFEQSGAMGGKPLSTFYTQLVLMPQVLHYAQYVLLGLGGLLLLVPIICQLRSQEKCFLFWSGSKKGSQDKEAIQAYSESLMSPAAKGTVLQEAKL
Metabotropic glutamate receptor 3, sequence (P31422 whole entry): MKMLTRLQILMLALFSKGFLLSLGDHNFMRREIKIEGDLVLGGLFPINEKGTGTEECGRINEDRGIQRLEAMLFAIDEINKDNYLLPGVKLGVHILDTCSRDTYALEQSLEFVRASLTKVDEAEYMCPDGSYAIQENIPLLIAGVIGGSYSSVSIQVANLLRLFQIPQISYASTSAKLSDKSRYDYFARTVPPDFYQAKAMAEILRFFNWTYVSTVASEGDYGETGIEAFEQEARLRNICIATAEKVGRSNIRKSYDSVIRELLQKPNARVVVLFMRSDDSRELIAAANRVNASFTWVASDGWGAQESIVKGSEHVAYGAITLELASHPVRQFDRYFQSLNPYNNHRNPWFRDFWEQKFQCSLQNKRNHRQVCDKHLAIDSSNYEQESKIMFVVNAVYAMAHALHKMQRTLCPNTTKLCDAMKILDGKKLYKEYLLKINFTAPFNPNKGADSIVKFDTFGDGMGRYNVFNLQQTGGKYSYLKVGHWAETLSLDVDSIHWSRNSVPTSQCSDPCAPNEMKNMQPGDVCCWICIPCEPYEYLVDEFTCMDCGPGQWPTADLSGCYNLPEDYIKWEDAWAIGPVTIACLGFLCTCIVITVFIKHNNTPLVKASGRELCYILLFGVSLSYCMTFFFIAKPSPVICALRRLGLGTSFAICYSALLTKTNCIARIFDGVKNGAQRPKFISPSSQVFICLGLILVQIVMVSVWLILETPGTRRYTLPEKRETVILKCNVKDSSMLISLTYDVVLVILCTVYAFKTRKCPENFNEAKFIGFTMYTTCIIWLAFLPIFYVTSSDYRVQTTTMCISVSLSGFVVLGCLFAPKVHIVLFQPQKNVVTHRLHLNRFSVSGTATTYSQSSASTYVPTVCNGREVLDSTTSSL
Beta-galactosidase, sequence (Q8VNN2 whole entry): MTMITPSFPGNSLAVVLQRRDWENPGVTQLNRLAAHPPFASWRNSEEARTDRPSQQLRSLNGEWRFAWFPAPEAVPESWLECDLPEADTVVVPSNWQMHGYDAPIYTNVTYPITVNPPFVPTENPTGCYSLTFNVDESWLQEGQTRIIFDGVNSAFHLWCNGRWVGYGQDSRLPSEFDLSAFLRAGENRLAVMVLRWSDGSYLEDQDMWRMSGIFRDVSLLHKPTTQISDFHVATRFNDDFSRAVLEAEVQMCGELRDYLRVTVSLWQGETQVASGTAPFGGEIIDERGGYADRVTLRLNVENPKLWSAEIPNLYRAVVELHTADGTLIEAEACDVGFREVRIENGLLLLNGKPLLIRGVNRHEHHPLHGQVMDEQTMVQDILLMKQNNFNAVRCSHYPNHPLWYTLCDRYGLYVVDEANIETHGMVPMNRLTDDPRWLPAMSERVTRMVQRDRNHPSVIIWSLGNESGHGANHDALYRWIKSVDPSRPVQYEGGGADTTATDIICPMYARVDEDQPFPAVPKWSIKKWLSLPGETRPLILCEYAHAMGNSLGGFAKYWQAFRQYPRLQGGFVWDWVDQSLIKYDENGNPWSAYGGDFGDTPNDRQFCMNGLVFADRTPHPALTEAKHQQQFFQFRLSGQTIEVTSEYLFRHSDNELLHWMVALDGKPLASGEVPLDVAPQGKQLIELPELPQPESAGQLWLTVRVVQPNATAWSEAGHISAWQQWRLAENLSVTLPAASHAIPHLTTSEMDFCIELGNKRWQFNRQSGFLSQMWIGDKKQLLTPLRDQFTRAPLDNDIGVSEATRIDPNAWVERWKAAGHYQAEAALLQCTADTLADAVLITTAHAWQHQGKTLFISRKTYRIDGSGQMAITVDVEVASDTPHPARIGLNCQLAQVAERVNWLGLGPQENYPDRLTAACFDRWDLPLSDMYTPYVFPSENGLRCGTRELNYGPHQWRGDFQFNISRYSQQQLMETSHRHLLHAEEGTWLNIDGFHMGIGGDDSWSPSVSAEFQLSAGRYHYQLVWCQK

As to `CO[C@H](CN(C)S(=O)(=O)c1cccc(Cl)c1)[C@@H](C)CN([C@H](C)CO)S(=O)(=O)c1ccc(Cl)cc1`, the AbsAC35 stood at 104.79 µM in assay [1] and 36.95 µM in assay [2]. The AC50 is the concentration at which the activity in the assay is half-maximal. As to `CC(C)NC(=O)Nc1ccc2c(c1)C(=O)N([C@@H](C)CO)C[C@H](C)[C@H](CN(C)S(=O)(=O)c1ccc(Cl)cc1)O2`, the AC50 in assay [3] was > 70 µM (inactive). Regarding `CN1CCN(C)/C(=N/c2cc(Cl)c(C#N)cc2C(=O)Nc2ccccc2)C1`, in assay [4], the IC50 is < 0.26 µM (active). In the case of `COc1ccc(C#Cc2ccc(C(=O)N3CCCC4(C3)OCCO4)cc2)cc1`, in [5], the IC50 amounted to 7.17 µM. Regarding `COc1ccc(CC/N=C2\C=C(NS(=O)(=O)c3c(C)cc(C)cc3C)c3ccccc3C2=O)cc1`, the AC50 in assay [6] and in assay [7] was > 52 µM (inactive) in each case. Turning to `COc1cc(-c2nc3ccc(C)cn3c2NCc2ccccc2)ccc1-c1cccc(Cl)c1`, the AC50 with INS1 is 5.14 µM (active). In addition, at Beta-galactosidase, the IC50 is 96 µM (inactive).

In the case of `O=C(CC1S/C(=N\c2ccccc2)N(Cc2ccccn2)C1=O)Nc1ccc(Br)cc1` (stereo unspecified), the IC50 is 37.4 µM (inactive) in assay [8] and > 69.5 µM (inactive) in assay [9]. A word on the CC50: it is the concentration that lowers cell viability or growth by half. For the molecule `CN(c1ccc(O)cc1)c1nc(-c2ccccc2)cs1`, the CC50 in [10] is 100 µM (active). The IC50 in [11] was 57.7 µM (active). Regarding `N=c1c2ccccc2nnn1-c1ccc(C(F)(F)F)cc1`, the IC50 in assay [12] is 8.01 µM (active); in [13], 18.8 µM (active); in assay [14], 12.8 µM (active).
